Where two headings read alike, the source gives them in different places.
Tests used:
Caco-2 = test: LDH cell viability assay, colon cancer cells; type: cell-based; settings: Homo sapiens; for IC50: Caco-2, 24 h, LDH assay
Method: (§1) Normal prostate epithelial cells (PNT2), two prostate cancer cell lines (Du145 and PC3), human keratinocytes (HaCaT), two melanoma cell lines (A375 and HTB140) and two colon cancer cell lines (HT29 and Caco-2) were treated with 3 at a concentration range 1.0–50.0 µg/mL. Viability of the cells was estimated using lactate dehydrogenase (LDH) assay.
(§2) Cytotoxic activity of 3 was tested on human cancer and normal cells, grouped in three panels: prostate, skin and gastrointestinal. The prostate panel comprised prostate cancer cell lines DU145 (ATCC HTB-81) and PC3 (ATCC CRL-1435) and prostate normal epithelial cells PNT2 (ECACC 95012613). Melanoma cell lines A375 (ATCC CRL-1619) and HTB140 (ATCC Hs 294T) together with human keratinocytes HaCaT (obtained as a kind gift of Prof. Marta Michalik, Department of Cell Biology, Jagiellonian University) were included in the skin panel. Two colon cancer cell lines, namely Caco-2 (ATCC HTB-37) and HT29 (ATCC HTB-38), constituted the gastrointestinal panel. Du145 cells were grown in a modified Eagle’s medium with low (1.0 g/L) glucose concentration; HT29, PC3 and PNT-2 cells were grown in Dulbecco’s modified Eagle’s medium (DMEM) and F12 HAM Nutrient Mixture; Caco-2 cells were grown in modified Eagle’s medium with nonessential amino acids (NEAA); and melanoma cells and keratinocytes were maintained in modified Eagle’s medium with high (4.5 g/L) glucose concentration. The culture media contained antibiotics and 10% fetal bovine serum (FBS). All cultures were maintained at 37 °C in a humidified, 5% CO2-containing atmosphere.
(§3) The examined compound (3) was diluted in the culture media from freshly made stock solution in MeOH (10 mg/mL) to the working concentrations (from 0 to 50 μg/mL). Cell viability was determined as described previously. […] Then, the culture medium was replaced with the medium containing different concentrations of the assessed compound (1–50 μg/mL). After 24 h of incubation, the viability of the cells was determined using colorimetric lactate dehydrogenase (LDH) assay in comparison to the controls to which corresponding aliquots of MeOH diluted with culture media were added. Cells grown in the medium without the tested compound were used as control I (negative), and the positive control (control II) was obtained by incubation of the cells in the medium containing 1% Triton X-100. LDH released from the damaged cells into the cell culture medium was quantified by measuring the absorbance at 490 nm using a Synergy II Biotek microplate reader. Cytotoxicities of the examined compounds were calculated as follows: ((absorbance of the tested sample−absorbance of control I)/(absorbance of control II−absorbance of control I)) × 100. Results were means of three independent measurements (± SD). Doxorubicin (Ebewe Pharma G.m.b.H., Unterach, Austria) was used as a reference cytostatic drug.

HT29 = test: LDH cell viability assay, colon cancer cells; type: cell-based; settings: Homo sapiens, HT-29; for IC50: HT29, 24 h, LDH assay
Method: as §1, §2, §3

[1] = value in parentheses, read-out: IC50 (IC50 µM) (converted)

IC50 (Caco-2; [1]): 8.29 µM
IC50 (Caco-2; read-out: IC50): 3.88 ± 0.1 mg/L
IC50 (HT29; [1]): 13.3 µM
IC50 (HT29; read-out: IC50): 6.23 ± 0.89 mg/L
SMILES: C=C1C(=O)O[C@H]2[C@H]1[C@@H](O)[C@H](OC(=O)CC(C)C)[C@H](C)CCC(=O)[C@](C)(O)[C@@H]2OC(=O)C(C)C [Compound 3]
viability at 1 µg/mL (Caco-2; Caco-2, 1 µg/mL, 24 h, read-out: Cell Viability (%) ± SD): 52.8 ± 1.62%
viability at 3 µg/mL (Caco-2; Caco-2, 3 µg/mL, 24 h, read-out: Cell Viability (%) ± SD): 38.6 ± 2.35%
viability at 5 µg/mL (Caco-2; Caco-2, 5 µg/mL, 24 h, read-out: Cell Viability (%) ± SD): 15.1 ± 2.91%
viability at 10 µg/mL (Caco-2; Caco-2, 10 µg/mL, 24 h, read-out: Cell Viability (%) ± SD): 1.96 ± 2.7%
viability at 20 µg/mL (Caco-2; Caco-2, 20 µg/mL, 24 h, read-out: Cell Viability (%) ± SD): 0.31 ± 0.43%
viability at 30 µg/mL (Caco-2; Caco-2, 30 µg/mL, 24 h, read-out: Cell Viability (%) ± SD): 0%
viability at 50 µg/mL (Caco-2; Caco-2, 50 µg/mL, 24 h, read-out: Cell Viability (%) ± SD): 0%
viability at 1 µg/mL (HT29; HT29, 1 µg/mL, 24 h, read-out: Cell Viability (%) ± SD): 69.3 ± 1.75%
viability at 3 µg/mL (HT29; HT29, 3 µg/mL, 24 h, read-out: Cell Viability (%) ± SD): 58 ± 1.66%
viability at 5 µg/mL (HT29; HT29, 5 µg/mL, 24 h, read-out: Cell Viability (%) ± SD): 49.2 ± 2%
viability at 10 µg/mL (HT29; HT29, 10 µg/mL, 24 h, read-out: Cell Viability (%) ± SD): 38 ± 2.29%
viability at 20 µg/mL (HT29; HT29, 20 µg/mL, 24 h, read-out: Cell Viability (%) ± SD): 24.4 ± 1.1%
viability at 30 µg/mL (HT29; HT29, 30 µg/mL, 24 h, read-out: Cell Viability (%) ± SD): 10.4 ± 1.09%
viability at 50 µg/mL (HT29; HT29, 50 µg/mL, 24 h, read-out: Cell Viability (%) ± SD): 0.79 ± 0.78%
